# Measured values: patent US12532889B2, “Herbicidal compositions comprising glufosinate” (BASF SE, priority 2023, dated 2026)
# “And” between values parts separate entries of the source, which are not always exact repeats. Identical values can stand only once.
# Columns and labels:
# Assay in all cases: Post-emergence application in field trials (Example A)
# Type in all cases: in vivo
# [1] = tested on: AMASP (Amaranthus spinosus); settings: Table 5.5; AMASP growth stage 72; A-1 25, B-6 252 g ai/ha; 28 DAT; water 400 l/ha
# How it was run: (§1)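 Percent weed damage (0 = none, 100 = complete destruction), scored against untreated controls at the given DAT, is reported for solo and combined applications. Weeds, naturally occurring or seeded on field plots, were treated after emergence. Colby's formula supplied the additive expectation.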
# [2] = tested on: AVEFA (Avena fatua); settings: Table 3.1; AVEFA growth stage 22-24, height 18-29 cm; A-1 12.5, B-2 500 g ai/ha; 28 DAT; water 100 l/ha
# How it was run: as §1
# [3] = tested on: AVESG (Avena strigosa); settings: Table 1.6; AVESG growth stage 11-21, height 5-10 cm; A-1 25, B-2 400 g ai/ha; 14 DAT; water 200 l/ha
# How it was run: as §1
# [4] = tested on: BRAPL (Brachiaria plantaginea); settings: BRAPL growth stage 24, A-1 50, B-2 400 g ai/ha, water 200 l/ha
# How it was run: as §1
# [5] = tested on: CNDSS (Conyza sp.); settings: Table 1.5; CNDSS growth stage 26-59, height 15-55 cm; A-1 50, B-2 600 g ai/ha; 14 DAT; water 200 l/ha
# How it was run: as §1
# [6] = tested on: COMDI (Commelina diffusa); settings: Table 5.3; COMDI growth stage 76-77; A-1 25, B-6 252 g ai/ha; 28 DAT; water 300 l/ha
# How it was run: as §1
# [7] = tested on: CYPES (Cyperus esculentus); settings: 21 DAT, water 140 l/ha
# How it was run: as §1
# [8] = tested on: DIGHO (Digitaria horizontalis); settings: Table 1.4, DIGHO growth stage 24, 14 DAT, water 200 l/ha
# How it was run: as §1
# [9] = tested on: DIGSA (Digitaria sanguinalis); settings: for % Herbicidal activity: A-1 12.5 g ai/ha, growth stage 22
# How it was run: as §1
# [10] = tested on: ECHCG (Echinocloa crus-galli)
# How it was run: as §1
# [11] = tested on: ERISS (Erigeron sp.); settings: Table 1.8, ERISS height 30-50 cm, 14 DAT, water 200 l/ha
# How it was run: as §1
# [12] = tested on: GLXMA (Glycine max); settings: 21 DAT; A-1 12.5 g ai/ha; growth stage 13; height 5-10 cm
# How it was run: as §1
# [13] = tested on: HORVW (Hordeum vulgare (winter barley))
# How it was run: as §1
# [14] = tested on: LOLMU (Lolium multiflorum)
# How it was run: as §1
# [15] = tested on: PASSC (Paspalum scrobiculatum); settings: Table 5.2, A-1 25, B-6 252 g ai/ha, 21 DAT, water 450 l/ha
# How it was run: as §1
# [16] = tested on: POLCO (Polygonum convolvulus); settings: Table 3.2, A-1 12.5, B-2 500 g ai/ha, 14 DAT, water 100 l/ha
# How it was run: as §1
# [17] = tested on: SETPA (Setaria palmifolia); settings: Table 5.3; SETPA growth stage 76-77; A-1 25, B-6 252 g ai/ha; 28 DAT; water 300 l/ha
# How it was run: as §1
# [18] = tested on: ZEAMX (Zea mays)
# How it was run: as §1
# [19] = 21 DAT, A-1 12.5 g ai/ha, growth stage 23-30, height 15-20 cm
# [20] = 21 DAT, A-1 18 g ai/ha, growth stage 23-30, height 15-20 cm
# [21] = 7 DAT, A-1 12.5 g ai/ha, growth stage 23-29, height 20-25 cm
# [22] = 7 DAT, A-1 18 g ai/ha, growth stage 23-29, height 20-25 cm
# [23] = 21 DAT, A-1 12.5 g ai/ha, growth stage 23-29, height 20-25 cm
# [24] = 21 DAT, A-1 18 g ai/ha, growth stage 23-29, height 20-25 cm
# [25] = 42 DAT, A-1 18 g ai/ha, growth stage 15-16, height 27-33 cm
smiles,measurement,setting,value
"CCOC(=O)COc1ccccc1Oc1nc(-n2c(=O)cc(C(F)(F)F)n(C)c2=O)c(F)cc1Cl [A-1, ethyl 2-[2-[[3-chloro-5-fluoro-6-[3-methyl-2,6-dioxo-4-(trifluoromethyl)pyrimidin-1-yl]-2-pyridyl]oxy]phenoxy]acetate]",% herbicidal activity,[1],84%
same,% herbicidal activity,[2],70%
same,% herbicidal activity,[3],78%
same,% herbicidal activity,"[4]; Table 1.18, 21 DAT",42%
same,% herbicidal activity,"[4]; Table 1.4, 14 DAT",85%
same,% herbicidal activity,[5],72%
same,% herbicidal activity,[6],60%
same,% herbicidal activity,"[7]; Table 4.2, A-1 25, B-2 655 g ai/ha",22%
same,% herbicidal activity,"[7]; Table 4.2, A-1 50, B-2 655 g ai/ha",42%
same,% herbicidal activity,"[8]; A-1 25, B-2 400 g ai/ha",57%
same,% herbicidal activity,"[8]; A-1 50, B-2 400 g ai/ha",65%
same,% Herbicidal activity,"[9]; 7 DAT, height 10-15 cm",75%
same,% Herbicidal activity,"[9]; 21 DAT, height 10-15 cm",70%
same,% herbicidal activity,"[9]; 21 DAT, A-1 18 g ai/ha, growth stage 21-22, height 10-15 cm",35%
same,% Herbicidal activity,"[9]; 41 DAT, height 10-15 cm",55%
same,% Herbicidal activity,"[9]; 42 DAT, height 10-15 cm",55%
same,% herbicidal activity,"[9]; Table 4.1, DIGSA height 2-8 cm, A-1 12.5, B-2 655 g ai/ha, 21 DAT, water 140 l/ha",27%
same,% herbicidal activity,"[9]; Table 4.1, DIGSA height 2-8 cm, A-1 25, B-2 655 g ai/ha, 21 DAT, water 140 l/ha",28%
same,% herbicidal activity,"[9]; Table 4.1, DIGSA height 2-8 cm, A-1 50, B-2 655 g ai/ha, 21 DAT, water 140 l/ha",55%
same,% herbicidal activity,"[9]; Table 6.1, DIGSA growth stage 21-22, height 10-15 cm, A-1 18, B-6 252 g ai/ha, 7 DAT, 200 l/ha water",40%
same,% herbicidal activity,"[10]; 7 DAT, A-1 12.5 g ai/ha, growth stage 23-30, height 15-20 cm",20%
same,% herbicidal activity,"[10]; 7 DAT, A-1 18 g ai/ha, growth stage 23-30, height 15-20 cm",40%
same,% Herbicidal activity,[10]; [19],30% and 20%
same,% herbicidal activity,[10]; [19],20% and 30%
same,% Herbicidal activity,[10]; [20],30%
same,% herbicidal activity,[10]; [20],30% and 40%
same,% Herbicidal activity,"[10]; 28 DAT, A-1 12.5 g ai/ha, growth stage 23-30, height 15-20 cm",20%
same,% Herbicidal activity,"[10]; 28 DAT, A-1 18 g ai/ha, growth stage 23-30, height 15-20 cm",30%
same,% herbicidal activity,"[10]; Table 6.1, ECHCG growth stage 23-30, height 15-20 cm, A-1 12.5, B-6 150 g ai/ha, 7 DAT, 200 l/ha water",20%
same,% herbicidal activity,"[10]; Table 6.1, ECHCG growth stage 23-30, height 15-20 cm, A-1 12.5, B-6 252 g ai/ha, 7 DAT, 200 l/ha water",20%
same,% herbicidal activity,"[10]; Table 6.1, ECHCG growth stage 23-30, height 15-20 cm, A-1 18, B-6 150 g ai/ha, 7 DAT, 200 l/ha water",30%
same,% herbicidal activity,"[10]; Table 6.1, ECHCG growth stage 23-30, height 15-20 cm, A-1 18, B-6 252 g ai/ha, 7 DAT, 200 l/ha water",40%
same,% herbicidal activity,"[11]; A-1 25, B-2 400 g ai/ha",13%
same,% herbicidal activity,"[11]; A-1 50, B-2 400 g ai/ha",18%
same,% herbicidal activity,[12],90%
same,% Herbicidal activity,[13]; [21],60%
same,% herbicidal activity,[13]; [21],60%
same,% Herbicidal activity,[13]; [22],70%
same,% herbicidal activity,[13]; [22],75%
same,% Herbicidal activity,[13]; [23],90% and 60%
same,% herbicidal activity,[13]; [23],70% and 60%
same,% Herbicidal activity,[13]; [24],70%
same,% herbicidal activity,[13]; [24],70% and 75%
same,% herbicidal activity,"[13]; Table 6.1, HORVW growth stage 23-29, height 20-25 cm, A-1 12.5, B-6 150 g ai/ha, 7 DAT, 200 l/ha water",60%
same,% herbicidal activity,"[13]; Table 6.1, HORVW growth stage 23-29, height 20-25 cm, A-1 12.5, B-6 252 g ai/ha, 7 DAT, 200 l/ha water",60%
same,% herbicidal activity,"[13]; Table 6.1, HORVW growth stage 23-29, height 20-25 cm, A-1 18, B-6 150 g ai/ha, 7 DAT, 200 l/ha water",70%
same,% herbicidal activity,"[13]; Table 6.1, HORVW growth stage 23-29, height 20-25 cm, A-1 18, B-6 252 g ai/ha, 7 DAT, 200 l/ha water",70%
same,% herbicidal activity,"[14]; 7 DAT, A-1 12.5 g ai/ha, growth stage 22-25, height 20-25 cm",70%
same,% herbicidal activity,"[14]; 21 DAT, A-1 12.5 g ai/ha, growth stage 22-25, height 20-25 cm",70%
same,% herbicidal activity,"[14]; Table 1.28, LOLMU growth stage 11-23, height 5-10 cm, A-1 25, B-2 400 g ai/ha, 28 DAT, water 200 l/ha",43%
same,% herbicidal activity,"[14]; Table 6.1, LOLMU growth stage 22-25, height 20-25 cm, A-1 12.5, B-6 252 g ai/ha, 7 DAT, 200 l/ha water",40%
same,% herbicidal activity,"[14]; Table 6.1, LOLMU growth stage 22-25, height 20-25 cm, A-1 18, B-6 252 g ai/ha, 7 DAT, 200 l/ha water",50%
same,% herbicidal activity,[15],22%
same,% herbicidal activity,[16],90%
same,% herbicidal activity,[17],65%
same,% herbicidal activity,"[18]; 7 DAT, A-1 12.5 g ai/ha, growth stage 15-16, height 50-60 cm",80%
same,% Herbicidal activity,"[18]; 21 DAT, A-1 12.5 g ai/ha, growth stage 15-16, height 27-33 cm",35%
same,% herbicidal activity,"[18]; 21 DAT, A-1 12.5 g ai/ha, growth stage 15-16, height 50-60 cm",70%
same,% herbicidal activity,"[18]; 28 DAT, A-1 12.5 g ai/ha, growth stage 15-16, height 50-60 cm",50%
same,% Herbicidal activity,"[18]; 42 DAT, A-1 12.5 g ai/ha, growth stage 15-16, height 27-33 cm",20%
same,% Herbicidal activity,[18]; [25],30%
same,% herbicidal activity,[18]; [25],20%
same,% herbicidal activity,"[18]; Table 1.12, ZEAMX volunteer corn, A-1 50, B-2 400 g ai/ha, 21 DAT, water 100 l/ha",83%
same,% herbicidal activity,"[18]; Table 6.1, ZEAMX growth stage 15-16, height 50-60 cm, A-1 18, B-6 252 g ai/ha, 7 DAT, 200 l/ha water",85%
